# From BindingDB's records for doi:10.7270/Q2W37TR5 (Nmmlsc, 2009)
# pEC50: −log10 of the molar value.
# Biological target: Ras-related C3 botulinum toxin substrate 1 (Mus musculus, UniProt P63001)
# Assay: analog inhibition of wildtype Rac1 nucleotide loading – biochemical, additional analogs, multiplex bead flow cytometry, SAR follow-up (AID 2040)
# Settings: not given
row,Structure (SMILES),pEC50
1,O=C1Nc2c(Br)cccc2C1=C1Nc2ccccc2C1=O,4.52
2,O=C1N=c2ccc(Br)cc2=C1c1[nH]c2ccccc2c1NO [5-bromanyl-3-[3-(oxidanylamino)-1H-indol-2-yl]indol-2-one],4.52
3,O=C1Nc2ccc(Br)cc2C1=C1Nc2ccccc2C1=O,4.79
4,O=C1NC(=S)N/C1=C1\C(=O)Nc2ccccc21 [(3Z)-3-(5-oxo-2-sulfanylideneimidazolidin-4-ylidene)-1H-indol-2-one],5.78
5,O=C1N=c2c(Br)cccc2=C1c1[nH]c2ccccc2c1NO [7-bromanyl-3-[3-(oxidanylamino)-1H-indol-2-yl]indol-2-one],4.52
6,"O=C1Nc2ccccc2/C1=C1/Nc2ccccc2C1=O [2-[(3Z)-2-oxo-2,3-dihydro-1H-indol-3-ylidene]-2,3-dihydro-1H-indol-3-one]",4.52
7,O=C1Nc2c(F)cccc2C1=C1Nc2ccccc2C1=O,4.46
8,O=C1N=c2c(F)cccc2=C1c1[nH]c2ccccc2c1NO [7-fluoro-3-[3-(hydroxyamino)-1H-indol-2-yl]-2-indolone],4.52
9,O=C1N=c2ccccc2=C1c1[nH]c2ccccc2c1NO [3-[3-(hydroxyamino)-1H-indol-2-yl]-2-indolone],4.52
10,O=C1Nc2c(Cl)cccc2C1=C1Nc2ccccc2C1=O,4.52
11,C[C@@H](C(=O)O)c1cccc(Oc2ccccc2)c1 [calcium;2-(3-phenoxyphenyl)propanoic acid;hydrate],4.52
12,O=C1N=c2c(Cl)cccc2=C1c1[nH]c2ccccc2c1NO [7-chloro-3-[3-(hydroxyamino)-1H-indol-2-yl]-2-indolone],4.52
13,O=C1NC(=O)/C(=C2/C(=O)Nc3ccccc32)N1,5.58

# Same assay, conditions: inactive by the depositor's call
row,Structure (SMILES),pEC50
1,O=C(C#Cc1ccccc1)c1cccnc1 [3-phenyl-1-pyridin-3-ylprop-2-yn-1-one],4.52
2,COc1ccc(S(=O)(=O)n2c(N)c(C#N)c(-c3cc(Br)c(OC)c(OC)c3)c2C(=O)c2ccccc2)cc1 [UNM-0000305782],4.52
3,N#Cc1ccc(C(=O)C#Cc2ccccc2)cc1 [4-(3-phenylprop-2-ynoyl)benzenecarbonitrile],4.52
4,COc1ccc(C(=O)C#Cc2ccccc2)cc1 [1-(4-methoxyphenyl)-3-phenyl-2-propyn-1-one],4.52
5,O=C(C#Cc1ccccc1)c1ccc(F)cc1 [UNM-0000306059],4.52
6,"COc1cc(-c2c(C#N)c(N)n(S(=O)(=O)c3c(C(C)C)cc(C(C)C)cc3C(C)C)c2C(=O)c2ccccc2)cc(OC)c1OC [2-azanyl-5-(phenylcarbonyl)-4-(3,4,5-trimethoxyphenyl)-1-[2,4,6-tri(propan-2-yl)phenyl]sulfonyl-pyrrole-3-carbonitrile]",4.12
7,COc1ccc(S(=O)(=O)n2c(N)c(C#N)c(-c3cncc(Br)c3)c2C(=O)c2ccccc2)cc1 [2-amino-5-benzoyl-4-(5-bromo-3-pyridinyl)-1-(4-methoxyphenyl)sulfonyl-3-pyrrolecarbonitrile],5.01
8,O=C1Nc2ccccc2/C1=C1/Cc2ccccc2C1=O [UNM-0000305763],4.52
9,O=C(C#Cc1ccccc1)c1ccccc1[N+](=O)[O-] [UNM-0000306038],4.52
10,O=C(C#Cc1ccccc1)c1ccc(OC(F)(F)F)cc1,4.52
11,O=C1Nc2c(Br)cccc2/C1=C1/Cc2ccccc2C1=O [(3E)-7-bromo-3-(3-oxo-1H-inden-2-ylidene)-1H-indol-2-one],4.52
12,O=[N+]([O-])c1ccc(C#Cc2ccccc2)cc1,4.52
13,O=C(C#Cc1ccccc1)c1ccc(Cl)cc1 [UNM-0000306055],4.52
14,CSc1ccc(/C=C2/C(C)=C(CC(=O)O)c3cc(F)ccc32)cc1 [{6-Fluoro-2-methyl-3-[1-(4-methylsulfanyl-phenyl)-meth-(E)-ylidene]-3H-inden-1-yl}-acetic acid],4.26
15,O=C1Nc2cccc(Br)c2/C1=C1/Cc2ccccc2C1=O,4.92
16,COC(=O)c1ccc(C(=O)C#Cc2ccccc2)cc1 [4-(1-oxo-3-phenylprop-2-ynyl)benzoic acid methyl ester],4.52
17,COc1ccc(-c2c(C#N)c(N)n(S(C)(=O)=O)c2C(=O)c2ccccc2)cc1Br [2-azanyl-4-(3-bromanyl-4-methoxy-phenyl)-1-methylsulfonyl-5-(phenylcarbonyl)pyrrole-3-carbonitrile],4.52
18,O=C(C#Cc1ccccc1)c1ccc([N+](=O)[O-])cc1 [1-(4-nitrophenyl)-3-phenyl-2-propyn-1-one],4.52
19,CC(=O)Oc1ccccc1C(=O)O [2-(acetyloxy)benzoic acid],4.52
20,O=C(C#Cc1ccccc1)c1ccccc1 [UNM-0000306039],4.52
21,N#Cc1c(-c2ccc(Cl)cc2)c(C(=O)c2ccccc2)n(S(=O)(=O)c2ccc([N+](=O)[O-])cc2)c1N [UNM-0000305780],4.52
22,CC1=C(CC(=O)O)c2cc(F)ccc2/C1=C/c1ccc([S+](C)[O-])cc1 (stereo not drawn) [UNM-0000306136],4.52
23,"CCCCS(=O)(=O)n1c(N)c(C#N)c(-c2cc(OC)c(OC)c(OC)c2)c1C(=O)c1ccccc1 [2-amino-5-benzoyl-1-butylsulfonyl-4-(3,4,5-trimethoxyphenyl)-3-pyrrolecarbonitrile]",4.52
24,COc1ccc(S(=O)(=O)n2c(N)c(C#N)c(-c3ccccc3)c2C(=O)c2ccc(Br)cc2)cc1,4.52
25,COc1ccc2cc(CC(=O)O)ccc2c1 [2-(6-methoxynaphthalen-2-yl)ethanoic acid],4.52
